Several values for one entry are separate records, joined by “and”; a condition that tells them apart may be missing. Identical values can stand only once. Entries after “also recorded” stand apart in the source; their conditions may differ. Like-named read-outs stand apart in the source and are kept apart here.
Tests used:
[1] = test system: HSV-1; conditions: cited from earlier work
[2] = test system: Vero cells; test: Cytotoxicity assay, morphological and proliferation changes by microscope; format: cell-based, green monkey; conditions: for change of cell morphology: 12.5 to 75 μM; for maximum nontoxic concentration: Vero cells; for effect on the cells: higher concentration
Description: Cells were studied for morphological and proliferation changes 48 hrs later using an ACCU-Scope 3002 microscope with a camera attached. […] Cells were studied for morphological and proliferation changes 24 hrs later using an ACCU-Scope 3002 microscope with a camera attached. In order to determine the proper concentrations of EGCG and EGCG-ester to be used for treating HSV1, the effect of polyphenols on the cells were studied. […] In this experiment, the polyphenols were added at the same time as the cells were plated and were not removed subsequently. The effect of different concentrations of EGCG-ester on Vero cells was also observed at 24 hrs. […] EGCG-ester was then aspired, and cells were observed 24 hours later.

[3] = test system: HSV; test: HSV plaque assays using Vero cells with and without EGCG (Example 1); format: cell-based; conditions: 100 μM applied
Description: HSV plaque assays using Vero cells were conducted with and without the addition of epigallocatechin gallate (EGCG).

[4] = test system: Vero cells; test: Cell viability assay, trypan blue and hemocytometer direct cell count; conditions: for Dead cells / Live cells: FIG. 1 axis Vero cells/ml
Description: Vero cells were plated in 6 well plates and after a period of 24 hours different concentrations of EGCG or EGCG-ester (12.5, 25, 50, 75, 100 μM) were added to each well, respectively. After one hour, the polyphenols were aspirated and the cells were washed with PBS. DMEM media was put back into each well and cells were incubated for 24 hrs. Cells were then counted using a hemocytometer and trypan blue which stains the dead cells blue and leaves the live cells white.
The cell viability was determined by using trypan blue and hemacytometer direct cell count to detect the effect of EGCG-ester on Vero cells.

[5] = test system: HSV1; test: Fluorescence microscopy of GFP-HSV1 lytic cycle in Vero cells; format: cell-based; conditions: for virus replication and formation of virions: virus treated with 100 μM
Description: Cells were grown on glass cover slips and allowed to reach confluence. They were then infected with either control HSV or previously treated HSV for 1 hour. Time course studies were performed in which the virus was allowed to adsorb for 1 hour and then aspirated. Cells were washed with PBS and media was added to each well. After a period of 8, 10, and 12 hours, cells were then fixed with a 1:1 acetone and methanol solution and visualized under a Zeiss Axiovision fluorescence microscope using differential interference contrast settings.
HSV1/Vero cells were used as positive controls and Vero cells were used as negative control. 75 μM EGCG ester-HSV1/Vero cells were also monitored and compared to controls. GFP-HSV1, DAPI stained nucleus and lysosome stain were used to identify cytopathic effects on Vero cells. The course study was performed in triplicates.

[6] = for a topical application; cited from earlier work
[7] = test system: HSV-2; conditions: Vero cells; cited from earlier work
[8] = test system: Vero cells; test: Cell proliferation assay (MTS tetrazolium, absorbance 490 nm); format: cell-based, green monkey; conditions: for absorbance at 490 nm (single reading): 1 hour, read 24 hours later; for inhibition of cell proliferation: up to 75 μM, compared to controls
Description: A cell proliferation kit (G5421, Promega Corp.) was used. This is a colorimetric method for determining cell proliferation. This kit contains a tetrazolium compound and an electron-coupling reagent (phenazine methosulfate). Only live cells will be able to bioreduce the tetrazolium compound into soluble formazan. Thus, the amount of formazan formed and measured at 490 nm absorbance is directly proportional to the number of live cells. Cells were plated into 96 well plates and after 24 hrs they were treated with different concentrations (12.5, 25, 50, 75, 100 μM) of polyphenols and allowed to adsorb for 1 hour. Polyphenols were then aspirated and 100 μL of fresh DMEM was added back to each well. 24 hours later, 20 μL of the MTS reagent was added to every 100 μL of cells in media. The plates were incubated at 37° C. and 5% CO2 for 4 hours, and then the absorbance was read using a plate reader. […] In this study, cell proliferation was examined under the same conditions as described before. Each experiment was assayed in triplicates, and absorbance of this colorimetric assay was recorded at 490 nm using a 96 well ELISA plate reader.

[9] = test system: HSV-1; conditions: antibodies against gB, gD, and a capsid protein; cited from earlier work
[10] = Stability of the polyphenol (statements, no method); format: physicochemical; conditions: vaginal pH
[11] = test system: HSV1-UL46; test: GFP expression study using a fluorometer; format: cell-based; conditions: 75 μM, virions treated 3 hours, cells 12 hrs
Description: GFP expression was studied in Escherichia coli that contained GFP plasmid, and Escherichia coli without GFP plasmid. The fluorometer used was a Tuner Digital Fluorometer-Model 450. Samples were put into 3 mLs of H2O and serial dilutions were performed from the first 3 mLs of each sample. A standard dilution curve was obtained from the serial dilutions. Next, Vero cells were grown on T-75 flasks and allowed to reach confluence. HSV1 virions were treated for 3 hours with 75 μM of polyphenols prior to cell infection. Cells were then infected with treated and non-treated HSV1-UL46 and allowed to adsorb for 1 hour. Viruses that had not been absorbed were then removed by washing the cells twice with PBS. The cells were then incubated at 37° C. for 12 hrs. Cells were then trypsinized and pelleted. Finally, cells were resuspended with 3 mLs of H2O and analyzed for GFP expression using a fluorometer. 3 ml of water was used as the blank sample. The Gain knob was set to 1000 for higher fluorescence sensitivity.
In this experiment, Vero cells only, HSV1/Vero cells, and 75 μM EGCG-ester-HSV1/Vero cells were used to quantitatively measure GFP expression.

[12] = 100 μM, Vero cells, replicate counts
[13] = 75 μM, 8 to 12 hours post infection

SMILES: O=C(O[C@@H]1Cc2c(O)cc(O)cc2O[C@@H]1c1cc(O)c(O)c(O)c1)c1cc(O)c(O)c(O)c1 [EGCG, (−)-epigallocatechin-3-gallate, reference compound]
- viral production ([1]; Vero cells treated following adsorption and entry of HSV-1): does not inhibit the viral production
- inhibition of HSV infection ([1]; Vero cells): successfully inhibited HSV infection in a concentration dependent manner
- morphological changes ([2]; 12.5-100 μM, added when cells were plated, not removed, observed at 48 hrs): no morphological changes
- change of cell morphology [2]: do not induce a change cell morphology
- maximum nontoxic concentration [2]: 75 µM
- effect on the cells [2]: not significantly affected
- viral plaques [3]: no viral plaques were observed
- Cells [4, 12]: 167 and 292 and 347
- Cells dead [4, 12]: 119 and 134 and 184
- virus replication and formation of virions [5]: not able to replicate and form more virions
- stability [6]: highly unstable and oxidizes very quickly
- inhibition of HSV infection [7]: successfully inhibited HSV infection in a concentration dependent manner
- absorbance at 490 nm, Mean ([8]; 12.5 μM): 0.607
- absorbance at 490 nm (single reading) ([8]; 12.5 μM): 0.615 and 0.606 and 0.601
- absorbance at 490 nm, Mean ([8]; 25 μM): 0.621
- absorbance at 490 nm (single reading) ([8]; 25 μM): 0.628 and 0.620 and 0.616
- absorbance at 490 nm, Mean ([8]; 50 μM): 0.603
- absorbance at 490 nm (single reading) ([8]; 50 μM): 0.632 and 0.587 and 0.589
- absorbance at 490 nm, Mean ([8]; 75 μM): 0.647
- absorbance at 490 nm (single reading) ([8]; 75 μM): 0.645 and 0.652
- absorbance at 490 nm, Mean ([8]; 100 μM): 0.698
- absorbance at 490 nm (single reading) ([8]; 100 μM): 0.688 and 0.677 and 0.730
- inhibition of cell proliferation [8]: not inhibiting cell proliferation to a great extent
- drop in immunogold labeling, treated compared to untreated virions [9]: 30% and 40%

SMILES: CCCCCCCCCCCCCCCC(=O)Oc1c(O)cc([C@H]2Oc3cc(O)cc(O)c3C[C@H]2OC(=O)c2cc(O)c(O)c(O)c2)cc1O [EGCG-ester]
- stability [10]: stable at vaginal pH
- cell morphology ([2]; 100 μM, added when cells were plated, not removed, 48 hrs): affected to a certain extent
- cell morphology ([2]; 12.5-100 μM for 1 hour on cells plated 24 hours, observed 24 hours later): not greatly affected
- change of cell morphology [2]: do not induce a change cell morphology
- maximum nontoxic concentration [2]: 75 µM
- effect on the cells [2]: not significantly affected
- % of death ([4]; 12.5 μM): 10%
- Dead cells ([4]; 12.5 μM): 2.7E+06
- Live cells ([4]; 12.5 μM): 2.56E+07
- % of death ([4]; 25 μM): 10%
- Dead cells ([4]; 25 μM): 2.95E+06
- Live cells ([4]; 25 μM): 2.72E+07
- % of death ([4]; 50 μM): 10%
- Dead cells ([4]; 50 μM): 2.90E+06
- Live cells ([4]; 50 μM): 2.89E+07
- % of death ([4]; 75 μM): 10%
- Dead cells ([4]; 75 μM): 1.70E+06
- Live cells ([4]; 75 μM): 2.71E+07
- maximum nontoxic concentration ([4]; Vero cells): 75 µM
- percentage of cell death ([4]; increasing concentration, compared to control): not changed; also recorded: did not change much
- inhibition of HSV1 infections [5, 13]: able to inhibit HSV1 infections
- visible viral particles in infected cells [5, 13]: almost no virions
- GFP expression in green fluorescence images ([5]; 75 μM, 8 hrs post infection): almost none
- virus replication and formation of virions [5]: not able to replicate and form more virions
- GFP expression (fluorometer) compared to HSV1/Vero cells [11]: much lower
- absorbance at 490 nm, Mean ([8]; 12.5 μM): 0.627
- absorbance at 490 nm (single reading) ([8]; 12.5 μM): 0.642 and 0.647 and 0.574
- absorbance at 490 nm, Mean ([8]; 25 μM): 0.647
- absorbance at 490 nm (single reading) ([8]; 25 μM): 0.668 and 0.651 and 0.621
- absorbance at 490 nm, Mean ([8]; 50 μM): 0.676
- absorbance at 490 nm (single reading) ([8]; 50 μM): 0.663 and 0.698 and 0.667
- absorbance at 490 nm, Mean ([8]; 75 μM): 0.653
- absorbance at 490 nm (single reading) ([8]; 75 μM): 0.582 and 0.689 and 0.687
- absorbance at 490 nm, Mean ([8]; 100 μM): 0.717
- absorbance at 490 nm (single reading) ([8]; 100 μM): 0.691 and 0.741 and 0.719
- inhibition of cell proliferation [8]: not inhibiting cell proliferation to a great extent

Source: US9446017B2, “Compositions and methods for treating herpes simplex virus” (Augusta University Research Institute, Inc., priority 2005, dated 2016)
